Experimental data as given in patent publication EP4653437A2 (Innovo Therapeutics Inc., priority 2023, dated 2024).

Legend:
[1] = tested on: A549 cells; assay: Measurement of PGE2-increasing activity in A549 cells (IL-1β stimulated, PGE2 quantified in supernatant); type: cell-based; settings: Homo sapiens, 24 h; concentration of 1 µM of each compound; IL-1β treated A549 cells; read-out: Increased PGE2 production in A549 cells
Outline: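 A549 cells grown 24 h in F12K with 10% FBS, then switched to serum-free medium with or without IL-1β and compound (0.1% DMSO final). After 24 h at 37 °C, 5% CO2, supernatant PGE2 quantified by immunoassay.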

[2] = target: T1, human 15-PGDH (Homo sapiens, UniProt P15428); assay: Evaluation of 15-PGDH inhibitory activity (fluorescence enzyme assay, NAD+/PGE2); type: biochemical; settings: human 15-PGDH enzyme, fluorescence Vmax
T1 construct: purchased R&D System 5660-DH
T1 sequence (P15428 1-266): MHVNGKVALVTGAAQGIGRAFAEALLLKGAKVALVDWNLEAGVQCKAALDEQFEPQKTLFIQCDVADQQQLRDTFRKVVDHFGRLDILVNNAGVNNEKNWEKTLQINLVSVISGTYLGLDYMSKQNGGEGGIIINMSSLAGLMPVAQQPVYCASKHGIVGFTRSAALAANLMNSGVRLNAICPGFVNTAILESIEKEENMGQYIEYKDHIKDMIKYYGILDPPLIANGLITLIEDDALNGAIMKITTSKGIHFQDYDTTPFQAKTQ
Description: 15-PGDH inhibition activity of Example compounds was measured as follows. 6.7 ng of human 15-PGDH (R&D System# 5660-DH) enzyme (10 µL) was added to a black 96 well plate, 60 µL of buffer (50 mM Tris-HCl, pH 7.5, 0.01% Tween 20) was added, and 10 µL of 200 µM β-Nicotinamide adenine dinucleotide sodium salt (Sigma, Cat# N0632-5G) was added. 10 µL of (10x) compound solution in DMSO was added and reacted for 10 minutes at room temperature.

| Compound | fold induction at 1 µM [1] | IC50 [2] |
| --- | --- | --- |
| Cn1nc2ccc(-c3cccc4c(C(=O)N5CCCCC5)cnn34)cn2c1=O [Example 246, 2-methyl-6-(3-(piperidine-1-carbonyl)pyrazolo[1,5-a]pyridin-7-yl)-[1,2,4]triazolo[4,3-a]pyridin-3(2H)-one] | > 1.5 | ≤ 100 nM |
| O=C1NC(=O)/C(=C/c2cccc(-c3cccc4c(C(=O)N5CCCCC5)cnn34)c2)S1 [Example 119, (Z)-5-(3-(3-(piperidine-1-carbonyl)pyrazolo[1,5-a]pyridin-7-yl)benzylidene)thiazolidine-2,4-dione] | > 1.5 | ≤ 100 nM |
| O=C(NCc1cncs1)c1cncc(-c2cccc3c(C(=O)N4CCCCC4)cnn23)c1 [Example 57, 5-(3-(piperidine-1-carbonyl)pyrazolo[1,5-a]pyridin-7-yl)-N-(thiazol-5-ylmethyl)nicotinamide] | > 1.5 | ≤ 100 nM |
| O=C(Nc1cccc2c(C(=O)N3CCCCC3)cnn12)c1ccc(Cl)cc1 [Example 239, 4-chloro-N-[3-(piperidine-1-carbonyl)pyrazolo[1,5-a]pyridin-7-yl]benzamide] | > 1.5 | ≤ 100 nM |
| O=C1NCCc2ccc(Nc3cccc4c(C(=O)N5CCCCC5)cnn34)cc21 [Example 211, 7-[[3-(piperidine-1-carbonyl)pyrazolo[1,5-a]pyridin-7-yl]amino]-3,4-dihydro-2H-isoquinolin-1-one] | > 1.5 | ≤ 100 nM |
| O=C(c1cnn2c(-c3ccc([N+](=O)[O-])nc3)cccc12)N1CCCCC1 [Example 16, (7-(6-nitropyridin-3-yl)pyrazolo[1,5-a]pyridin-3-yl)(piperidin-1-yl)methanone] | > 1.5 | ≤ 100 nM |
| O=C(c1cnn2c(-c3cnc(O)nc3)cccc12)N1CCCCC1 [Example 294, [7-(2-hydroxypyrimidin-5-yl)pyrazolo[1,5-a]pyridin-3-yl]-(1-piperidyl)methanone] | < 1.5 | ≤ 100 nM |
| O=C(c1cnn2c(-c3cnc(-c4noc(=O)[nH]4)c(F)c3)cccc12)N1CCCCC1 [Example 247, 3-[3-fluoro-5-[3-(piperidine-1-carbonyl)pyrazolo[1,5-a]pyridin-7-yl]-2-pyridyl]-4H-1,2,4-oxadiazol-5-one] | > 1.5 | ≤ 100 nM |
| O=C(c1cnn2c(-c3ccc(-c4ncon4)cc3)cccc12)N1CCCCC1 [Example 352, [7-[4-(1,2,4-oxadiazol-3-yl)phenyl]pyrazolo[1,5-a]pyridin-3-yl]-(1-piperidyl)methanone] | > 1.5 | ≤ 100 nM |
| Cc1nc(-c2ncc(-c3cccc4c(C(=O)N5CCCCC5)cnn34)cc2F)no1 [Example 263, [7-[5-fluoro-6-(5-methyl-1,2,4-oxadiazol-3-yl)-3-pyridyl]pyrazolo[1,5-a]pyridin-3-yl]-(1-piperidyl)methanone] | > 1.5 | ≤ 100 nM |
| N#Cc1c(F)cc(-c2cccc3c(C(=O)N4CCCCC4)cnn23)cc1F [Example 290, 2,6-difluoro-4-(3-(piperidine-1-carbonyl)pyrazolo[1,5-a]pyridin-7-yl)benzonitrile] | > 1.5 | ≤ 100 nM |
| O=C(NCC1CC1)c1ccc(-c2cccc3c(C(=O)N4CCCCC4)cnn23)cn1 [Example 80, N-(cyclopropylmethyl)-5-(3-(piperidine-1-carbonyl)pyrazolo[1,5-a]pyridin-7-yl)picolinamide] | > 1.5 | ≤ 100 nM |
| Cc1ncc(-c2cc(-c3cccc4c(C(=O)N5CCCCC5)cnn34)cc(N3CCOC3=O)n2)cn1 [Example 372, 3-(6-(2-methylpyrimidin-5-yl)-4-(3-(piperidine-1-carbonyl)pyrazolo[1,5-a]pyridin-7-yl)pyridin-2-yl)oxazolidin-2-one] | > 1.5 | ≤ 100 nM |
| CS(=O)(=O)Nc1ccc(-c2cccc3c(C(=O)N4CCCCC4)cnn23)cn1 [Example 112, N-(5-(3-(piperidine-1-carbonyl)pyrazolo[1,5-a]pyridin-7-yl)pyridin-2-yl)methanesulfonamide] | > 1.5 | ≤ 100 nM |
| N#CCCNC(=O)c1ccc(-c2cccc3c(C(=O)N4CCCCC4)cnn23)cc1 [Example 69, N-(2-cyanoethyl)-4-(3-(piperidine-1-carbonyl)pyrazolo[1,5-a]pyridin-7-yl)benzamide] | > 1.5 | ≤ 100 nM |
| O=C1CC(C(=O)Nc2cncc(-c3cccc4c(C(=O)N5CCCCC5)cnn34)c2)CCN1 (stereo not drawn) [Example 198, 2-oxo-N-(5-(3-(piperidine-1-carbonyl)pyrazolo[1,5-a]pyridin-7-yl)pyridin-3-yl)piperidine-4-carboxamide] | > 1.5 | ≤ 100 nM |
| O=C(COc1ccc(Cl)cc1)Nc1cncc(-c2cccc3c(C(=O)N4CCCCC4)cnn23)c1 [Example 406, 2-(4-chlorophenoxy)-N-(5-(3-(piperidine-1-carbonyl)pyrazolo[1,5-a]pyridin-7-yl)pyridin-3-yl)acetamide] | > 1.5 | ≤ 100 nM |
| Cc1noc(C)c1-c1ncc(-c2cccc3c(C(=O)N4CCCCC4)cnn23)cn1 [Example 399, [7-[2-(3,5-dimethylisoxazol-4-yl)pyrimidin-5-yl]pyrazolo[1,5-a]pyridin-3-yl]-(1-piperidyl)methanone] | > 1.5 | ≤ 100 nM |
| COCCNC(=O)c1cccc(-c2cccc3c(C(=O)N4CCCCC4)cnn23)c1 [Example 30, N-(2-methoxyethyl)-3-(3-(piperidine-1-carbonyl)pyrazolo[1,5-a]pyridin-7-yl)benzamide] | > 1.5 | ≤ 100 nM |
| O=C(c1cnn2c(-c3cnc(-c4nnc(C(F)(F)F)o4)c(F)c3)cccc12)N1CCCCC1 [Example 394, [7-[5-fluoro-6-[5-(trifluoromethyl)-1,3,4-oxadiazol-2-yl]-3-pyridyl]pyrazolo[1,5-a]pyridin-3-yl]-(1-piperidyl)methanone] | > 1.5 | ≤ 100 nM |
| O=C(c1ncc(-c2cccc3c(C(=O)N4CCCCC4)cnn23)cc1F)N1CCOCC1 [Example 249, [7-[5-fluoro-6-(morpholine-4-carbonyl)-3-pyridyl]pyrazolo[1,5-a]pyridin-3-yl]-(1-piperidyl)methanone] | < 1.5 | ≤ 100 nM |
| O=C(c1cnn2c(-c3ccc(-c4ccsc4)cc3)cccc12)N1CCCCC1 [Example 347, 1-piperidyl-[7-[4-(3-thienyl)phenyl]pyrazolo[1,5-a]pyridin-3-yl]methanone] | < 1.5 | ≤ 100 nM |
| CN1CCC(C(=O)Nc2cccc(-c3cccc4c(C(=O)N5CCCCC5)cnn34)c2)CC1 [Example 93, 1-methyl-N-(3-(3-(piperidine-1-carbonyl)pyrazolo[1,5-a]pyridin-7-yl)phenyl)piperidine-4-carboxamide] | > 1.5 | ≤ 100 nM |
| Cn1nc(N)c2cc(-c3cccc4c(C(=O)N5CCCCC5)cnn34)ccc21 [Example 261, [7-(3-amino-1-methyl-indazol-5-yl)pyrazolo[1,5-a]pyridin-3-yl]-(1-piperidyl)methanone] | > 1.5 | ≤ 100 nM |
| COCCC(=O)Nc1cccc(-c2cccc3c(C(=O)N4CCCCC4)cnn23)c1 [Example 91, 3-methoxy-N-(3-(3-(piperidine-1-carbonyl)pyrazolo[1,5-a]pyridin-7-yl)phenyl)propanamide] | > 1.5 | ≤ 100 nM |
| O=C1NCCc2ccc(-c3cccc4c(C(=O)N5CCCCC5)cnn34)cc21 [Example 131, 7-(3-(piperidine-1-carbonyl)pyrazolo[1,5-a]pyridin-7-yl)-3,4-dihydroisoquinolin-1(2H)-one] | > 1.5 | ≤ 100 nM |
| CS(=O)(=O)NC(=O)c1cncc(-c2cccc3c(C(=O)N4CCCCC4)cnn23)c1 [Example 201, N-methylsulfonyl-5-[3-(piperidine-1-carbonyl)pyrazolo[1,5-a]pyridin-7-yl]pyridine-3-carboxamide] | > 1.5 | ≤ 100 nM |
| CN(C)c1cc(-c2cccc3c(C(=O)N4CCCCC4)cnn23)ccc1C#N [Example 23, 2-(dimethylamino)-4-(3-(piperidine-1-carbonyl)pyrazolo[1,5-a]pyridin-7-yl)benzonitrile] | > 1.5 | ≤ 100 nM |
| CC1CCCN(C(=O)c2cnn3c(-c4ccc5c(c4)C(=O)NC5)cccc23)C1 (stereo not drawn) [Example 387, 6-(3-(3-methylpiperidine-1-carbonyl)pyrazolo[1,5-a]pyridin-7-yl)isoindolin-1-one] | > 1.5 | ≤ 100 nM |
| O=C(Nc1cccnc1)c1cncc(-c2cccc3c(C(=O)N4CCCCC4)cnn23)c1 [Example 53, 5-(3-(piperidine-1-carbonyl)pyrazolo[1,5-a]pyridin-7-yl)-N-(pyridin-3-yl)nicotinamide] | > 1.5 | ≤ 100 nM |
